Data: article PMC9230136 (Pharmaceutics, 2022)

Tests used:
[1] = test system: A549; experiment: Antiproliferative assay (resazurin, 72 h); assay type: cell-based, human
Method: (§1) Colon adenocarcinoma (HT-29) and T-cell leukemia (Jurkat) cells were grown in RPMI-1640 medium (Gibco, Milano, Italy). Promyelocytic leukemia cells (HL-60), non-small cell lung carcinoma (A549), cervix carcinoma (HeLa) and breast adenocarcinoma (MDA-MB-231) cells were grown in DMEM medium (Gibco, Milano, Italy). Both media were supplemented with 115 units/mL of penicillin G (Gibco, Milano, Italy), 115 μg/mL of streptomycin (Invitrogen, Milano, Italy) and 10% fetal bovine serum (Invitrogen, Milano, Italy). All the cell lines used were purchased from the American Type Culture Collection (ATCC, Manassas, VA, USA). Stock solutions (10 mM) of the compounds were obtained by dissolving them in DMSO.
(§2) The cells were seeded in 96-well plates at the appropriate density for each cell line. After 24 h, the cells were treated by performing serial 5-fold dilutions of the tested compounds starting from a concentration of 10 μM. All experimental conditions were tested in triplicate for statistical analysis. The plates were incubated for 72 h at 37 °C in a humidified 5% CO2 atmosphere. At the end of the incubation period, 10 μL of 100 μg/mL resazurin solution was added to each well; then, the plate was re-incubated for 3–4 h. The fluorescence of the wells in each plate was monitored using a Spark 10 M spectrophotometer (Tecan Group Ltd., Mannedorf, Switzerland) with a 535 nm excitation wavelength and a 600 nm emission wavelength.

[2] = test system: HT-29; experiment: Antiproliferative assay (resazurin, 72 h); assay type: cell-based, human; settings: mean ± SE, 72 h
Method: as §1, §2

[3] = test system: HeLa; experiment: Antiproliferative assay (resazurin, 72 h); assay type: cell-based, human
Method: as §1, §2

[4] = test system: Jurkat; experiment: Antiproliferative assay (resazurin, 72 h); assay type: cell-based, human; settings: mean ± SE, 72 h
Method: as §1, §2

[5] = test system: MDA-MB-231; experiment: Antiproliferative assay (resazurin, 72 h); assay type: cell-based, human; settings: mean ± SE, 72 h
Method: as §1, §2

[6] = Homo sapiens, A549, Table 1, mean ± SE
[7] = Homo sapiens, HeLa, Table 1, mean ± SE
[8] = Homo sapiens, MDA-MB-231, Table 1
[9] = Homo sapiens, A549, Table 2, mean ± SE
[10] = Homo sapiens, HeLa, Table 2, mean ± SE
[11] = Homo sapiens, MDA-MB-231, Table 2

IC50 [1, 6]	IC50 ([2]; Homo sapiens, HT-29, Table 1)	IC50 [3, 7]	IC50 ([4]; Homo sapiens, Jurkat, Table 1)	IC50 [5, 8]	melting point	IC50 ([1]; Table 2, mean ± SE)	IC50 ([2]; Table 2)	IC50 ([3]; Table 2, mean ± SE)	IC50 ([4]; Table 2)	IC50 ([5]; Table 2)	IC50 [1, 9]	IC50 ([2]; Homo sapiens, HT-29, Table 2)	IC50 [3, 10]	IC50 ([4]; Homo sapiens, Jurkat, Table 2)	IC50 [5, 11]	Structure (SMILES)
1.92 ± 0.09 µM	> 10 µM	> 10 µM	4.44 ± 0.47 µM	2.99 ± 0.18 µM	182 to 184 °C											COc1cc(Nc2cc(C)nc3nc(NCc4ccccc4C)nn23)cc(OC)c1OC [Compound 7r, 5-Methyl-N^2-(2-methylbenzyl)-N^7-(3,4,5-trimethoxyphenyl)-[1,2,4]triazolo [1,5-a]pyrimidine-2,7-diamine]
						0.26 ± 0.07 µM	0.38 ± 0.03 µM	0.153 ± 0.01 µM	0.14 ± 0.07 µM	1.32 ± 0.87 µM						Cc1cc(Nc2cccc(Cl)c2)n2nc(NCCCc3ccccc3)nc2n1 [Compound 8t]
> 10 µM	> 10 µM	9.01 ± 0.21 µM	> 10 µM	1.55 ± 0.11 µM	178 to 180 °C											COc1cc(Nc2cc(C)nc3nc(NCc4ccc(C#N)cc4)nn23)cc(OC)c1OC [Compound 7x, 4-(((5-Methyl-7-((3,4,5-trimethoxyphenyl)amino)-[1,2,4]triazolo [1,5-a]pyrimidin-2-yl)amino)methyl)benzonitrile]
					166 to 168 °C						2.36 ± 0.34 µM	1.38 ± 0.06 µM	0.72 ± 0.34 µM	0.95 ± 0.12 µM	2.04 ± 1.03 µM	Cc1cc(Nc2ccc(Cl)c(Cl)c2)n2nc(NCc3ccc4c(c3)OCO4)nc2n1 [Compound 8k, N^2-(Benzo[d][1,3]dioxol-5-ylmethyl)-N^7-(3,4-dichlorophenyl)-5-methyl-[1,2,4]triazolo [1,5-a]pyrimidine-2,7-diamine]
					166 to 168 °C						1.64 ± 0.37 µM	0.83 ± 0.003 µM	0.68 ± 0.26 µM	0.63 ± 0.14 µM	2.76 ± 0.55 µM	Cc1ccc(CNc2nc3nc(C)cc(Nc4cccc(Cl)c4)n3n2)cc1 [Compound 8e, N^7-(3-Chlorophenyl)-N^2-(4-methylbenzyl)-5-methyl-[1,2,4]triazolo [1,5-a]pyrimidine-2,7-diamine]
					186 to 188 °C						0.32 ± 0.06 µM	0.34 ± 0.02 µM	0.19 ± 0.05 µM	0.5 ± 0.31 µM	0.39 ± 0.04 µM	Cc1cc(Nc2ccc(F)c(Cl)c2)n2nc(NCc3ccc(Cl)cc3)nc2n1 [Compound 8a, N^7-(3-Chloro-4-fluorophenyl)-N^2-(4-chlorobenzyl)-5-methyl-[1,2,4]triazolo [1,5-a]pyrimidine-2,7-diamine]
					174 to 176 °C						2.44 ± 0.13 µM	9.11 ± 0.93 µM	5.88 ± 2.96 µM	5.98 ± 1.58 µM	9.25 ± 0.12 µM	Cc1cc(Nc2cccc(F)c2)n2nc(NCc3ccc4c(c3)OCO4)nc2n1 [Compound 8h, N^2-(Benzo[d][1,3]dioxol-5-ylmethyl)-N^7-(3-fluorophenyl)-5-methyl-[1,2,4]triazolo [1,5-a]pyrimidine-2,7-diamine]
3.75 ± 0.26 µM	3.53 ± 0.14 µM	3.2 ± 0.24 µM	4.4 ± 0.38 µM	2.71 ± 0.31 µM	173 to 175 °C											COc1cc(Nc2cc(C)nc3nc(NCc4ccccc4)nn23)cc(OC)c1OC [Compound 7i, N^2-Benzyl-5-methyl-N^7-(3,4,5-trimethoxyphenyl)-[1,2,4]triazolo [1,5-a]pyrimidine-2,7-diamine]
1.55 ± 0.19 µM	0.94 ± 0.11 µM	0.5 ± 0.04 µM	0.85 ± 0.02 µM	1.51 ± 0.14 µM	234 °C											COc1cc(Nc2cc(C)nc3nc(Nc4ccc(C)cc4)nn23)cc(OC)c1OC [Compound 7g, 5-Methyl-N2-(p-tolyl)-N7-(3,4,5-trimethoxyphenyl)-[1,2,4]triazolo [1,5-a]pyrimidine-2,7-diamine]
2.01 ± 0.16 µM	1.89 ± 0.16 µM	0.86 ± 0.1 µM	1.99 ± 0.24 µM	0.94 ± 0.09 µM	201 to 203 °C											COc1cc(Nc2cc(C)nc3nc(NCCc4ccccc4)nn23)cc(OC)c1OC [Compound 7z, 5-Methyl-N^2-phenethyl-N^7-(3,4,5-trimethoxyphenyl)-[1,2,4]triazolo [1,5-a]pyrimidine-2,7-diamine]
